Laboratory results: patent US20220009920A1 (GB005, Inc., priority 2020, published 2022)

How the values were obtained:
Experiment in all cases: Large panel kinase profiling
Format in all cases: biochemical
Conditions in all cases: 1 μM test article, 1 mM ATP
[1] = target: ABL2 (Homo sapiens, UniProt P42684)
Outline: (§1)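 CSox-Sensor fluorescence readout; test article 1 μM, ATP 1 mM, 30° C.; kinetic reads at 1-min intervals, Ex 360/Em 485 nm.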

[2] = target: KDR (Homo sapiens, UniProt P35968)
Outline: as §1

[3] = target: PRKCG/PKCG (Homo sapiens, UniProt P05129)
Outline: as §1

[4] = target: T1, STK11/LKB1 (Homo sapiens, UniProt Q15831)
T1 construct: AssayQuant Technologies, Inc. (contract assay)
T1 sequence (Q15831 1-433): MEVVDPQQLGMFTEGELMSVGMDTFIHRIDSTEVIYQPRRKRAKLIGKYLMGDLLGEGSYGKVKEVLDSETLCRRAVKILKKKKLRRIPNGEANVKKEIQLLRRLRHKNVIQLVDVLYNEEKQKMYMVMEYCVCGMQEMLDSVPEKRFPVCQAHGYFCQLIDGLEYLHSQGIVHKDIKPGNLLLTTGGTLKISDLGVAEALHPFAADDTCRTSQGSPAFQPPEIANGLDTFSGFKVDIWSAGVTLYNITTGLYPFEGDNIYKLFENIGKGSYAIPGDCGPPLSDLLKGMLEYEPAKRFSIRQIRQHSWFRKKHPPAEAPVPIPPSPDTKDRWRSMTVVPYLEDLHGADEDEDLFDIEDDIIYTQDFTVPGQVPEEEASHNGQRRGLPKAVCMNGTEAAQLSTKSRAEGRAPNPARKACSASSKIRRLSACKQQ
T1 sequence (Q7RTN6 1-431 partner): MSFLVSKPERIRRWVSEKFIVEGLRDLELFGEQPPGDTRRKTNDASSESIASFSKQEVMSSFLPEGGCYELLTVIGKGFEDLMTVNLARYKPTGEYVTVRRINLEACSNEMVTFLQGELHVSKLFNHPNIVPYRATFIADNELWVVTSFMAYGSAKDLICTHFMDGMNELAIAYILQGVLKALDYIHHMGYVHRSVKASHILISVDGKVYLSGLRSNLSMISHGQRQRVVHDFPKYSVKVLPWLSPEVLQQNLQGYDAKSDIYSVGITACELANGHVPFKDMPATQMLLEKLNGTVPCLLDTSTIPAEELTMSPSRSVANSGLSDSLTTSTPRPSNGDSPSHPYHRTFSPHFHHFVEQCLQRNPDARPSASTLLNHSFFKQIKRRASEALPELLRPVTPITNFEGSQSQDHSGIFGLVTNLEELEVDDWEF
T1 sequence (Q9Y376 1-341 partner): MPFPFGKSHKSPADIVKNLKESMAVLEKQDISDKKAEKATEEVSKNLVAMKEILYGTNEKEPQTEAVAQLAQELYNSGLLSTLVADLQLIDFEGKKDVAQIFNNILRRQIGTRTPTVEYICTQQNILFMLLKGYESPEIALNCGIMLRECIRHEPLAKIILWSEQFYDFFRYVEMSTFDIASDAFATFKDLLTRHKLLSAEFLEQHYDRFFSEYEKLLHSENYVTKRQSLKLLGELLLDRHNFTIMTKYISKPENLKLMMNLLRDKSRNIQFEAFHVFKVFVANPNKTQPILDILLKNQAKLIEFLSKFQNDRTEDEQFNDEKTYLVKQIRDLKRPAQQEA
Outline: as §1

[5] = target: T2, TNK2/ACK (Homo sapiens, UniProt Q07912)
T2 construct: AssayQuant Technologies, Inc. (contract laboratory that ran the panel)
Outline: as §1

[6] = target: T3, TYRO3 (Homo sapiens, UniProt Q06418)
T3 construct: AssayQuant Technologies, Inc. (contract laboratory that ran the panel)
T3 sequence (Q06418 41-890): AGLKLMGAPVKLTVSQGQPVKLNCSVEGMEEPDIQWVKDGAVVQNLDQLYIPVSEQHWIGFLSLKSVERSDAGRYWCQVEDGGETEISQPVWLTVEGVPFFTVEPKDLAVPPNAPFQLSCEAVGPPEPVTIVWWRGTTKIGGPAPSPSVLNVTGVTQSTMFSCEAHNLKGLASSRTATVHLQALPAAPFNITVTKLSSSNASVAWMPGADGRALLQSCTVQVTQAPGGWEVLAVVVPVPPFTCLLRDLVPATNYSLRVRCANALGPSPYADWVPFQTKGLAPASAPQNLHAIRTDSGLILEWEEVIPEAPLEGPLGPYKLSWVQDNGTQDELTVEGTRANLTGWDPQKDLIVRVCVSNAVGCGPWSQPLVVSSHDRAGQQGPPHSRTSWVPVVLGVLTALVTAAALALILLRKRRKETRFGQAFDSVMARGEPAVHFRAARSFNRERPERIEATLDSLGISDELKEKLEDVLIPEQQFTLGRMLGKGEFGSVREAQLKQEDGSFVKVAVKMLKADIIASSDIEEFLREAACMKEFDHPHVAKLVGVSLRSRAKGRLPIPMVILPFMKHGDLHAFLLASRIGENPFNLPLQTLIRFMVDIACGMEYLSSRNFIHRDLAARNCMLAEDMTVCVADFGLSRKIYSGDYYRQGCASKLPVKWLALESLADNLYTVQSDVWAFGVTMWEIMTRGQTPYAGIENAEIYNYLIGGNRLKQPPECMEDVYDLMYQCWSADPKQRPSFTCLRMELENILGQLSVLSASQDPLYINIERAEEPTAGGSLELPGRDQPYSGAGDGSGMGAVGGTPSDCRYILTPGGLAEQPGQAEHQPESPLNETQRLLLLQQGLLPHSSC
Outline: as §1

Sequence of KDR (P35968 20-1356, species assumed): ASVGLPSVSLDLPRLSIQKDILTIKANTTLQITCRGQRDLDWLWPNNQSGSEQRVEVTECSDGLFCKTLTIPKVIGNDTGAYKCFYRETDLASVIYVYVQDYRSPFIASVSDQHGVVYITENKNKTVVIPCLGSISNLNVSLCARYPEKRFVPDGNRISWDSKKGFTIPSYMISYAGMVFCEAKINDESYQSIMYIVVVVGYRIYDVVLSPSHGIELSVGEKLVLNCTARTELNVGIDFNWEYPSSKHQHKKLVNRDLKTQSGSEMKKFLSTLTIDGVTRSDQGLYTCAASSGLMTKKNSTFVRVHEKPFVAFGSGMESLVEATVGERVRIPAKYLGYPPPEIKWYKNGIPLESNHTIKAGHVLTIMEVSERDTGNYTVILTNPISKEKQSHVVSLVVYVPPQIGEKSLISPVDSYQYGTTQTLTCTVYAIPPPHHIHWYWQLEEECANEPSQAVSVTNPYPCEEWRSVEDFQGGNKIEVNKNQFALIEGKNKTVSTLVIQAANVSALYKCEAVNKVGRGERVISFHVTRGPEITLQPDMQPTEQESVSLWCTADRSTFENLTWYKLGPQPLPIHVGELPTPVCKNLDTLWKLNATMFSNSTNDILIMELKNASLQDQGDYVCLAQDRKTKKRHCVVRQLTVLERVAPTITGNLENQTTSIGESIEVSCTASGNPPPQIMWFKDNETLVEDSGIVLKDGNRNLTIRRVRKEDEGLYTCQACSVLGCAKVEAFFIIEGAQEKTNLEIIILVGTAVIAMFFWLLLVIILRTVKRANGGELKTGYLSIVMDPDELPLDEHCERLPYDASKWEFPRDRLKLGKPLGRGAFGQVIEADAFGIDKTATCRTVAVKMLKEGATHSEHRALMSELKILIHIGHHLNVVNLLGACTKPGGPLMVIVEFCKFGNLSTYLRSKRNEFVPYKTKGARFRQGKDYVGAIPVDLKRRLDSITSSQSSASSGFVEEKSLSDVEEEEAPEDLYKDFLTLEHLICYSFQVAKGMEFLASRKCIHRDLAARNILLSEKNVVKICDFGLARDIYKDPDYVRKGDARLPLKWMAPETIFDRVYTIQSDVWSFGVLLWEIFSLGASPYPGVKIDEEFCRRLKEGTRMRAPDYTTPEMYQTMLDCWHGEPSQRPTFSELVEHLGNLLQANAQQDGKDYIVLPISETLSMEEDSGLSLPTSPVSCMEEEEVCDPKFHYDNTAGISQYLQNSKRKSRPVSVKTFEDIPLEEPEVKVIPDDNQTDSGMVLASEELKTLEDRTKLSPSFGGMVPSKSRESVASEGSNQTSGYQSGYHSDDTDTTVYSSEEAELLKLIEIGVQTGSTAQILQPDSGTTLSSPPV
T2 sequence (Q07912 whole entry): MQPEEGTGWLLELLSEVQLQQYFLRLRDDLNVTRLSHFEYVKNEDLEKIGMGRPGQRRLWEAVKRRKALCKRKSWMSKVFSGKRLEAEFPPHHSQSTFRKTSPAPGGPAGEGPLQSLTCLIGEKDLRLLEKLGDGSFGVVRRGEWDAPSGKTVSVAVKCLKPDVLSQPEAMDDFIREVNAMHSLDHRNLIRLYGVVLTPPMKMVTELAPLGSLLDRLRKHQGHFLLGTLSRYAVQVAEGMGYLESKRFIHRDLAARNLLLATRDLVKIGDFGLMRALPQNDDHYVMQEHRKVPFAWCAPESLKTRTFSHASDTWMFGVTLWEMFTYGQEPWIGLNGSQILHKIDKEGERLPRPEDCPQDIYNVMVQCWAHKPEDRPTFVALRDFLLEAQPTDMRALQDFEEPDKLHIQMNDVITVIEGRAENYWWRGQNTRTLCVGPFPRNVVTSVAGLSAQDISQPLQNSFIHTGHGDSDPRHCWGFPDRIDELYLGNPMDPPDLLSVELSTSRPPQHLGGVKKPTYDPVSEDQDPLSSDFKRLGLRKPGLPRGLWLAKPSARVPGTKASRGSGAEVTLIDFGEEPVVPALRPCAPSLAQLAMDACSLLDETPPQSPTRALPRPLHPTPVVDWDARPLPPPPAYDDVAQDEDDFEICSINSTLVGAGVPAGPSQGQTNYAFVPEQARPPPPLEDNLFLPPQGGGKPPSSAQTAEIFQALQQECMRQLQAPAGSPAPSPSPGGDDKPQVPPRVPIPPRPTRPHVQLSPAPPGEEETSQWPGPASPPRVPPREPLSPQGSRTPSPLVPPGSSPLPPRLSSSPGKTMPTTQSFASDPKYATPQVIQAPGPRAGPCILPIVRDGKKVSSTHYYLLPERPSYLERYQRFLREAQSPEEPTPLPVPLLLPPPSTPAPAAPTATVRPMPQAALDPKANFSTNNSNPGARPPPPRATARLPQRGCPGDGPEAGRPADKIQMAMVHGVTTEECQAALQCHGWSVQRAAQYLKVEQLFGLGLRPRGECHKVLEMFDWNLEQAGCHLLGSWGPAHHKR
Sequence of ABL2 (P42684 whole entry): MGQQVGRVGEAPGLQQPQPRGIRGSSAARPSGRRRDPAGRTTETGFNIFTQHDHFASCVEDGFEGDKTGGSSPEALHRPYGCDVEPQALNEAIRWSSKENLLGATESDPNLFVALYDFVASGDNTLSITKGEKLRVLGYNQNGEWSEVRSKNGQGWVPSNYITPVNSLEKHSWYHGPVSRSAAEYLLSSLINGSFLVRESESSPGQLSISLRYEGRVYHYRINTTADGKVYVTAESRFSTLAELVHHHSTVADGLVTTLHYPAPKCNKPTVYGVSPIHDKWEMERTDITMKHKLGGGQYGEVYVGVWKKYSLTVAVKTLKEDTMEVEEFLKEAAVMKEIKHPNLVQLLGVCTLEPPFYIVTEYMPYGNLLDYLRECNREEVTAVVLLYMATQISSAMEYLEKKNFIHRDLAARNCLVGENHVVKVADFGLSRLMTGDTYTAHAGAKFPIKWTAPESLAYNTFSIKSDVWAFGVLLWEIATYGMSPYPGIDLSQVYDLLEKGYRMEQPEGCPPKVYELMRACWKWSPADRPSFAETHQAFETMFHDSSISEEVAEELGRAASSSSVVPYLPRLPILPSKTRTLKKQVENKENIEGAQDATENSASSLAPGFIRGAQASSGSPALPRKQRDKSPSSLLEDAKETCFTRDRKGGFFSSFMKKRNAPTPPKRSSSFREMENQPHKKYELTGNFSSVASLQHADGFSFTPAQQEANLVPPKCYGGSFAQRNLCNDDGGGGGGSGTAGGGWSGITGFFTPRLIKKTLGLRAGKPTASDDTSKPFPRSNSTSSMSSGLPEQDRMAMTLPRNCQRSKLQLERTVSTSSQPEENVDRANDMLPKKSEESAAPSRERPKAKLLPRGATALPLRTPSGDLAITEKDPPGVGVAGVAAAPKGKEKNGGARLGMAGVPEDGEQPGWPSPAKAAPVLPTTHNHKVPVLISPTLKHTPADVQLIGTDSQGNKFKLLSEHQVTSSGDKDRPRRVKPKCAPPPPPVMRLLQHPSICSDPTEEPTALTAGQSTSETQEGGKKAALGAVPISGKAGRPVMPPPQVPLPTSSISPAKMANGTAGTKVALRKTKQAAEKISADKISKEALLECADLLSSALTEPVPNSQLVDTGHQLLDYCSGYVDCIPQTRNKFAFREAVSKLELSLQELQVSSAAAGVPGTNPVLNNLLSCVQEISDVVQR

Compound	inhibition at 1 µM [1] [%]	inhibition at 1 µM [2] [%]	inhibition at 1 µM [3] [%]	inhibition at 1 µM [4] [%]	inhibition at 1 µM [5] [%]	inhibition at 1 µM [6] [%]
C=CC(=O)N1CCCC(c2c(F)cc(C(N)=O)c3[nH]c4c(c23)CCCCC4)C1 (single isomer, unassigned) [Compound 5-6]	-29.7	10.3	-7.3	23.5	-8.3	2.4
C=CC(=O)N1CCC[C@@H](c2c(F)cc(C(N)=O)c3[nH]c4c(c23)CC2(CC4)CC2)C1 [Compound 6-2, (S)-5-(1-acryloylpiperidin-3-yl)-6-fluoro-1,2,4,9-tetrahydrospiro[carbazole-3,1′-cyclopropane]-8-carboxamide]	-1.3	31.6	8.6	-4.3	13.4	14.7
C=CC(=O)N1CCC[C@@H](c2c(F)cc(C(N)=O)c3[nH]c4c(c23)CCC4)C1 [Compound 10-2, (S)-8-(1-acryloylpiperidin-3-yl)-7-fluoro-1,2,3,4-tetrahydrocyclo-penta[b]indole-5-carboxamide]	1.9	32.7	1.3	-6	2	10.1
